The values below are quoted from earlier work in patent publication US5169665A, “Tris-hydroxymethyl alkane esters as low calorie fat mimetics” (Nabisco, Inc., priority 1990, dated 1992).

The test system of series [1] is pancreatic lipase. Particulars: quoted from Minich, col. 4.
For series [2] the following is noted: rats fed ad libitum, versus control animals on a normal diet.

As to `CCCCCCCC(=O)OCC(COC(=O)CCCCCCC)(COC(=O)CCCCCCC)COC(=O)CCCCCCC` [pentaerythritol tetracaprylate], the “hydrolysis by pancreatic lipase” value in series [1] is listed as “not attacked, hydrolyzed, by the enzyme pancreatic lipase”. Moreover, the food consumption result in series [2] is “consumed more than control animals on a normal diet”.
